Experimental data as given in paper PMC6509210, “ALK2 inhibitors display beneficial effects in preclinical models of ACVR1 mutant diffuse intrinsic pontine glioma” (Communications Biology, 2019).

System: phospho-SMAD1/5/8 and ID1 in HSJD-DIPG-007 xenograft tumours
Assay: Pharmacodynamic biomarkers by Western blot in orthotopic HSJD-DIPG-007 xenograft tumours
Type: in vivo, NOD.SCID mice
Conditions: daily oral administration, end of 28 days
Procedure: Fig. 5 In vivo pharmacokinetics/pharmacodynamics of LDN-193189 (top) and LDN-214117 (bottom). a, e Tolerability in NOD.SCID mice exposed to daily oral treatment with inhibitor over 14 days, as assessed by body weight relative to day 0. Mean and standard deviation of 3 mice per group are plotted. b, f Blood levels of compounds up to 8 h post-exposure to a single oral dose of drug at day 14. Mean and standard deviation of 3 mice per group are plotted. c, g Barplot of compound concentrations in blood (red), plasma (yellow) and brain tissue (blue) 2 h post-exposure to a single oral dose of drug at day 14. […]
For growth factor starvation, cells were washed twice with PBS and then incubated for 1 h in stem cell medium without growth factors. […] Following quantification using Pierce BCA Protein Assay Kit (Thermo Fisher), equal amounts of cell extracts were loaded for Western blot analysis. […] Signal was detected with ECL Prime western blotting detection agent (Amersham Biosciences), visualised using Hyperfilm ECL (Amersham Biosciences) and analysed using an X-ray film processor in accordance with standard protocols. […]

c1ccc2c(-c3cnn4cc(-c5ccc(N6CCNCC6)cc5)cnc34)ccnc2c1 [LDN-193189]
reduction in pharmacodynamic biomarkers phospho-SMAD1/5/8 and ID1 in tumours: near-ablation of phospho-SMAD1/5/8 and ID1
